Earlier results as cited in patent publication US20120264961A1, “FE3O4-M(AU-LIKE)-NANOPARTICLES FOR ANTIBODY-CONSERVING TARGET-SPECIFIC PLATIN DELIVERY” (Brown University, priority 2009, published 2012).

Conditions: water solubility

In the case of `N.N.O=C([O-])C1(C(=O)[O-])CCC1.[Pt+2]` [carboplatin], the solubility is given as 22 mg/mL.
